Experimental data reported in patent US8058442B2 (Technion Research and Development Foundation Ltd., priority 2002, dated 2011).
Read-outs that look alike come from different tables or passages of the source. Marks after values point to notes of the source that are not given here.

Tests used:
[1] = Iron chelation in solution: fluorescence dequenching of iron-quenched calcein; settings: Fe-CAL in HBS pH 7.4, room temperature, 1 h incubation, read-out: half maximal dequenching level
Description: Iron binding was determined by the chelator capacity for restoring the fluorescence of iron-quenched calcein (CAL), a dynamic fluorescent metallosensor. The iron-scavenging properties of the chelators were assessed in solution, by mixing iron salts with free CAL.
Iron precomplexed calcein (Fe-CAL) solutions of 1 μm (in Hepes 20 mM buffered saline, pH 7.4=HBS) were incubated in the presence of the indicated concentrations of different chelators at room temperature and the fluorescence intensity (475 nm->520 nm) followed with time in a Tecan fluorescence plate reader, using 96-well culture plates (Nunc) at 100 μl final volume. The time-dependent complexation of iron from Fe-CAL by the chelators was followed by fluorescence dequenching. The fluorescence intensity attained after 1 h incubation is shown as a function of the chelator concentration.
The corresponding half maximal dequenching level for the corresponding chelator was (in μM) (rank order from the fastest acting to the slowest): […]

[2] = n-octanol/water shake-flask distribution coefficient; type: physicochemical; settings: for D in 0.01N HCl / D in 0.01N NaOH / D in H2O: distribution ratio D = Corg/Caq
From the text: The partition coefficient (Pow) or the distribution ratio (Dow) between octanol and water are most commonly used measures of the hydrophobicity of compounds. Dow can depend on the concentration of solute, but at reasonably low concentrations. If the solute is in the same form in both phases, Dow becomes constant and is called the partition coefficient Pow. Pow plays an important role in determining the physico-chemical properties and the behaviour of numerous organic compounds in biological systems. Pow is applied to quantitative structure-activity relationship studies, and as a measure of hydrophobicity. All the partition measurements are carried out using a 1-octanol/water shake-flask procedure (Leo, A J. 1991, “Hydrophobic parameter: measurement and calculation”, Methods Enzymol. 202:544-91) or simply by the elution time of solute from HPLC column. Thereafter, the transport properties of the iron-complexes are examined in the water/lipid membrane system (liposomes), which mimics biomembranes much better than the octanol/water system (Breuer et al, 1995).
1-Octanol (Riedel-deHaën, synthesis grade (250-270 nm abs.<0.06) and glass distilled deionized water were used as the partitioning solutions. A Hewlett-Packard 8450A diode array spectrophotometer was used for the quantitative determination of the tested com-pounds in the standard solutions and in the partitioned solutions. The aqueous phase stock solutions were shaken with an excess of 1-octanol to presaturate them and were then allow-ed to stand overnight before use. The 1-octanol stock solutions were also presaturated with 10 mM NaOH and allowed to settle overnight. The experiments were performed in 10-ml stoppered centrifuge tubes. The tubes were inverted gently for 5 min and then, to assure complete phase separation, they were centrifuged for 20 min at 1,000-2,000 g. The aqueous and organic phases were removed separately and analyzed by UV spectrophotometry.
Lipophilicity plays an important role in drug absorption and distribution. The logarithm of the n-octanol/water distribution coefficients (logD) is the most commonly used measure of the lipophilicity of a drug candidate. Here we used an n-octanol/water shake-flask procedure to determine logD. […] In acidic and basic solution, all the test compounds have low log D values, which refer to a good hydrophilicity. This can be explained by the formation of oxinium chloride (in acid) and sodium oxinate (in base) derivatives.

[3] = tested on: human erythroleukemia K562 cells; assay: Iron permeation of the chelators into calcein-loaded K562 cells; type: cell-based; settings: 5 μM chelator, 37° C.
Description: The iron-scavenging properties of the chelators were assessed in human erythroleukemia K562 cells, by loading with the permeant CAL-AM probe, in situ formation of free CAL, and binding of cytosolic labile iron. Calcein-AM readily passes through the cell membrane of viable cells because of the enhanced hydrophobicity as compared to Calcein. When Calcein-AM permeates into the cytoplasm, it is hydrolyzed by esterases in cells to the parent Calcein, a pH-independent, cytosolic fluorescent marker, which remains inside of the cell. The time-dependent recovery of fluorescence in the presence of a given chelator provided a continuous measure for the capacity of the chelator to access the iron/CAL-containing compartment.
Calcein uptake and intracellular fluorescence were determined as follows: K562 erythroleukemia cells were preloaded with calcein (CAL) by incubation with […] of the fluorescent probe CAL-AM for 5 min at 37° C., washed and incubated in HBS medium containing anti-CAL antibodies in order to quench traces of extracellular-associated fluorescence. The suspensions were placed in 96-well plates (100 μl final volume) and analyzed as described above while maintaining the system at 37° C. At the indicated time, the indicated chelator was added so as to reach a final 5 μM concentration.
The values of half maximal time (sec) and fraction of fluorescence recovery were: […]

[4] = target: T1, rat brain MAO-A (Rattus norvegicus, UniProt P21396); assay: In vitro inhibition of rat brain MAO-A; type: biochemical; settings: rat brain homogenate
T1 construct: from tissue; host or cells: rat brain homogenate, 4500 g pellet
T1 sequence (P21396 1-526): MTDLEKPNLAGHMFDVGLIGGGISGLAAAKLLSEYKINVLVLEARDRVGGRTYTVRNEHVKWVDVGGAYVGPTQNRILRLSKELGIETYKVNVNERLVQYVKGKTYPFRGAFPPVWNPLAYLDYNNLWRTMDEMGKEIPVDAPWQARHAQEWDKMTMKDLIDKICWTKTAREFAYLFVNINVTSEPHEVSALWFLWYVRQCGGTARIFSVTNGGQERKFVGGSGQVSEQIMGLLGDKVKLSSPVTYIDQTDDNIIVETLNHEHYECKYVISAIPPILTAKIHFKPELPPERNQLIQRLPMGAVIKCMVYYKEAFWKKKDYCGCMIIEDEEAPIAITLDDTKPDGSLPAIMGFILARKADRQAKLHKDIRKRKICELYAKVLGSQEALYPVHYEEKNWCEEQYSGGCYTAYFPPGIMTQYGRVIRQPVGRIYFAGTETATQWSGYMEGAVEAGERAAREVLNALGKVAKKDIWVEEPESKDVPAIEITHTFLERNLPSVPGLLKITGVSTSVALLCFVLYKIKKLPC
Description: (§1) Rats were decapitated and the brains were quickly taken into a weighted ice-cold sucrose buffer (0.32 M), and their weights were determined. All subsequent procedures were performed at 0-4° C. The brains were homogenized in 0.25 M sucrose (one part tissue to 20 parts sucrose) in a Teflon glass homogenizer followed by the addition of sucrose buffer to a final concentration of 10% homogenate. The homogenates were centrifuged at 600 g for 15 min. The supernatant fraction was taken out and centrifuged at 4500 g for 30 min, the pellet was diluted in 0.32 M sucrose buffer and kept frozen for later assaying of MAO. Protein concentration was determined with Bradford reagent at 595 nm, using bovine serum albumin as a standard.
(§2) The test compound was added to a suitable dilution of the enzyme preparation (70 μg protein for MAO-B and 150 μg MAO-A assay) in 0.05 M phosphate buffer (pH 7.4). The mixture was incubated together with […], a specific inhibitor of MAO-B (for determination of MAO-A) or […] clorgylin, a specific inhibitor of MAO-A (for determination of MAO-B). Incubation was carried for 1 h at 37° C. before addition of ^14C-5-hydroxytryptamine binoxalate ([…]) for determination of MAO-A, or ^14C-phenylethylamine 100 µM for determination of MAO-B, and incubation continued for 30 min or 20 min, respectively. The reaction was stopped with 2 M ice-cold citric acid, and the metabolites were extracted and determined by liquid-scintillation counting in cpm units.
(§3) MAO-A and MAO-B activities were determined in rat brain homogenate in vitro following incubation with varying concentrations of the test compounds.
In another experiment, the in vitro inhibitory activity of HLA20, M32, VK-28, M30, M31, and propargylamine (P) was tested against rat brain MAO-A. The test compounds were added to buffer containing 10^−7M deprenyl and were incubated with the tissue homogenate for 60 min at 37° C. before addition of ^14C-5-hydroxytryptamine. MAO-A activity in presence of the test compound was expressed as a percentage of that in control samples.

[5] = target: T2, rat brain MAO-B (Rattus norvegicus, UniProt P19643); assay: In vitro inhibition of rat brain MAO-B; type: biochemical; settings: for IC50: rat brain homogenate
T2 construct: from tissue; host or cells: rat brain homogenate, 4500 g pellet
T2 sequence (P19643 1-520): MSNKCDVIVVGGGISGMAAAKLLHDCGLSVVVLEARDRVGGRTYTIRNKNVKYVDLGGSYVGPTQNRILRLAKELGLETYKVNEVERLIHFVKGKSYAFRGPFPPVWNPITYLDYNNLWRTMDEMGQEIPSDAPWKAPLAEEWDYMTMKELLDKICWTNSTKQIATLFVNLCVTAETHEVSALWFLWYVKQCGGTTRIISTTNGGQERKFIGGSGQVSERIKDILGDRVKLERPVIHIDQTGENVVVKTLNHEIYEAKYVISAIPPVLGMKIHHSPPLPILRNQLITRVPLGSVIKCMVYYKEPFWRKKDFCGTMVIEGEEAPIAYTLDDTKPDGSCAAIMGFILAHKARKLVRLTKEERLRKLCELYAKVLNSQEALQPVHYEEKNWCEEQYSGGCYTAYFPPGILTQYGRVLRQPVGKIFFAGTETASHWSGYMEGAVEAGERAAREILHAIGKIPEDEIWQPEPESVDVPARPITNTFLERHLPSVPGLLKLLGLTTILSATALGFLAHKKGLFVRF
Description: as §1, §2, §3
MAO-B activity in presence of the test compound was expressed as a percentage of that in control samples.

## CCOC(=O)C(Cc1ccc(O)c2ncccc12)(NC(C)=O)C(=O)OCC
[1]; FIG. 1A
  EC50: 5 µM
[2]; H2O, read-out: LogD in H2O
  logD: 2.19
[2]; 0.01N HCl
  D in 0.01N HCl: 0.043
[2]; 0.01N NaOH
  D in 0.01N NaOH: 0.097
[2]; H2O
  D in H2O: 155.68
[2]; pH 2, 0.01N HCl, read-out: LogD in 0.01N HCl
  logD: -1.37
[2]; pH 12, 0.01N NaOH, read-out: LogD in 0.01N NaOH
  logD: -1.01

## NC(Cc1ccc(O)c2ncccc12)C(=O)O (racemic) [HLM8, DL-3-(8-hydroxyquinolin-5-yl)alanine]
[1]; FIG. 1A
  EC50: 6 µM
[3]; FIG. 2A
  half maximal time: 600 s
[2]
  logD: < -2
[2]; 0.01N HCl
  D in 0.01N HCl: 0.0031
[2]; 0.01N NaOH
  D in 0.01N NaOH: 0.020
[2]; H2O
  D in H2O: 0.0049
[2]; pH 2
  logD: < -2
[2]; pH 12
  logD: -1.7

## N[C@@H](Cc1ccc(O)c2ncccc12)C(=O)O [Compound M10, L-3-(8-hydroxyquinolin-5-yl)alanine]
[1]; FIG. 1B
  EC50: 9.85 µM
[3]; FIG. 2B
  half maximal time: 1050 s

## N[C@H](Cc1ccc(O)c2ncccc12)C(=O)O [Compound M9, D-3-(8-hydroxyquinolin-5-yl)alanine]
[1]; FIG. 1B
  EC50: 9.7 µM

## N[C@H](CSCc1ccc(O)c2ncccc12)C(=O)O [Compound M11, S-(8-hydroxyquinolin-5-ylmethyl)-D-cysteine]
[1]; FIG. 1C
  EC50: 5.4 µM

## CCOC(=O)N1CCN(Cc2ccc(O)c3ncccc23)CC1 [HLA16, ethyl 4-(8-hydroxyquinolin-5-ylmethyl)-1-piperazine carboxylate]
[1]; FIG. 1A
  EC50: 3.5 µM
[1]; FIG. 1B
  EC50: 4.4 µM
[3]; FIG. 2A
  half maximal time: 225 s
[3]; FIG. 2B
  half maximal time: 220 s
[2]
  logD: 1.79
[2]; 0.01N HCl
  D in 0.01N HCl: 0.018
[2]; 0.01N NaOH
  D in 0.01N NaOH: 2.44
[2]; H2O
  D in H2O: 62.96
[2]; pH 2
  logD: -1.74
[2]; pH 12
  logD: 0.39

## C#CCNC(Cc1ccc(O)c2ncccc12)C(=O)OCC (centres unmarked) [Compound M31]
[4]
  effect on MAO-A: almost no effect
[5]; 100 μM, read-out: inhibition of MAO-B
  inhibition at 100 µM: 14.2%

## N[C@@H](CSCc1ccc(O)c2ncccc12)C(=O)O [Compound M12, S-(8-hydroxyquinolin-5-ylmethyl)-L-cysteine]
[1]; FIG. 1C
  EC50: 6 µM

## Cc1c(O)c(=O)ccn1C [Compound L1, 1,2-dimethyl-3-hydroxy-pyridin-4-one, reference compound]
[1]; FIG. 1A
  EC50: 8.3 µM
[1]; FIG. 1B
  EC50: 8.4 µM
[1]; FIG. 1C
  EC50: 6.6 µM

## CCOC(=O)C(N)Cc1ccc(O)c2ncccc12 (racemic) [HLM9, DL-3-(8-hydroxyquinolin-5-yl)alanine ethyl ester]
[1]; FIG. 1A
  EC50: 7.2 µM
[3]; FIG. 2A
  half maximal time: 200 s
[2]
  logD: -1.7
[2]; 0.01N NaOH
  D in 0.01N NaOH: 0.0014
[2]; H2O
  D in H2O: 0.018
[2]; pH 5.64
  logD: -1.42
[2]; pH 12
  logD: < -2
[2]; phosphate buffer (pH = 5.64), printed in the 0.01N HCl column
  D: 0.038^b

## O=C(NN=Cc1ccccc1O)c1ccncc1 [SIH, salicylaldehyde isonicotinoyl hydrazone, reference compound]
[3]; FIG. 2A
  half maximal time: 125 s
[3]; FIG. 2C
  half maximal time: 100 s

## C#CCN(C)Cc1ccc(O)c2ncccc12 [Compound M30]
[4]
  IC50: < 0.1 µM
[5]
  IC50: < 0.1 µM

## CC(=O)N(O)CCCCCNC(=O)CCC(=O)N(O)CCCCCNC(=O)CCC(=O)N(O)CCCCCN [DFO, desferrioxamine B, reference compound]
[1]; FIG. 1A
  EC50: 0.5 µM
[1]; FIG. 1B
  EC50: 0.5 µM
[1]; FIG. 1C
  EC50: 0.5 µM

## C#CCN [Propargylamine, propargylamine, reference compound]
[4]
  IC50: 66.3 µM
[5]
  IC50: 10.1 µM

## Fmoc-KKC(HQ)L-NH2 [Compound M7]
[1]; FIG. 1C
  EC50: 3.4 µM
